This experiment concerns the target recombinant CaMKIIδ (Homo sapiens (Human), UniProt Q13557). Description: CaMKIIδ biochemical assay (HTRF). To be noted: 10 pM CaMKIIδ, 110 nM calmodulin, 12 μM ATP, 1 hour; read-out: CAMKIID-HTRF-384V2 (IC50 - nM). As to the method: CaMKIIδ Biochemical Assay
The biochemical activity of recombinant CaMKIIδ was measured by monitoring the phosphorylation of a target peptide using Homogenous Time Resolved Fluorescence (HTRF) technology from CisBio Bioassays.
On the technique in general: In TR-FRET formats the signal depends on donor and acceptor labels being close together.

Each structure is given as a SMILES string.

The IC50 is the concentration that gives 50% inhibition. `CCN(CC)[C@@H](C)CNC(=O)c1cc(OCCc2cnccn2)nc(-c2cnn3ccc(-c4cccs4)nc23)c1` [Example 350, (S)—N-(2-(diethylamino)propyl)-2-(2-(pyrazin-2-yl)ethoxy)-6-(5-(thiophen-2-yl)pyrazolo[1,5-a]pyrimidin-3-yl)isonicotinamide]: the IC50 was determined as 0.31 nM. Turning to `CCN(CC)[C@@H](C)CNC(=O)c1cc(Nc2ncc[nH]2)nc(-c2cnn3ccc(-c4cccs4)nc23)c1` [Example 241, (S)-2-((1H-imidazol-2-yl)amino)-N-(2-(diethylamino)propyl)-6-(5-(thiophen-2-yl)pyrazolo[1,5-a]pyrimidin-3-yl)isonicotinamide], the IC50 turned out to be 1.87 nM. The value for `CCC(C)N[C@@H](C)CNC(=O)c1ccnc(-c2cnn3ccc(-c4ccccc4)nc23)c1` (stereo partly drawn) [Example 45, N-((2S)-2-(sec-butylamino)propyl)-2-(5-phenylpyrazolo[1,5-a]pyrimidin-3-yl)isonicotinamide] was 77.4 nM; that for `CCN(CC)[C@@H](C)CNC(=O)c1cc(-c2cnn3ccc(-c4cccs4)nc23)nc(N2CC[C@H]2C(=O)N2CC(F)(F)C2)c1` [Example 294, N—((S)-2-(diethylamino)propyl)-2-((S)-2-(3,3-difluoroazetidine-1-carbonyl)azetidin-1-yl)-6-(5-(thiophen-2-yl)pyrazolo[1,5-a]pyrimidin-3-yl)isonicotinamide] was 0.22 nM; that for `CCN(CC)[C@@H](C)CNC(=O)c1cc(OCCN2CCOCC2)nc(-c2cnn3ccc(-c4cccs4)nc23)c1` [Example 352, (S)—N-(2-(diethylamino)propyl)-2-(2-morpholinoethoxy)-6-(5-(thiophen-2-yl)pyrazolo[1,5-a]pyrimidin-3-yl)isonicotinamide] was 0.21 nM. For `COc1cc(C(=O)N2CC[C@H](N)C2)cc(-c2cnn3ccc(-c4cccs4)nc23)n1` [Example 110, (S)-(3-aminopyrrolidin-1-yl)(2-methoxy-6-(5-(thiophen-2-yl)pyrazolo[1,5-a]pyrimidin-3-yl)pyridin-4-yl)methanone], the IC50 is 7.6 nM. Under `O=C(NC[C@H]1CCN1)c1ccnc(-c2cnn3ccc(-c4cccs4)nc23)c1` [Example 8, (R)—N-(azetidin-2-ylmethyl)-2-(5-(thiophen-2-yl)pyrazolo[1,5-a]pyrimidin-3-yl)isonicotinamide] stands 10 nM; under `COC1CN(c2cc(C(=O)N3CC4CCC(C3)NC4)cc(-c3cnn4ccc(-c5cccs5)nc34)n2)C1` (stereo not drawn) [Example 325, (-3,6-diazabicyclo[3.2.2]nonan-3-yl)(2-(3-methoxyazetidin-1-yl)-6-(5-(thiophen-2-yl)pyrazolo[1,5-a]pyrimidin-3-yl)pyridin-4-yl)methanone], 2.19 nM; under `O=C(NC[C@]1(CC2CC2)CCCN1)c1ccnc(-c2cnn3ccc(-c4cccs4)nc23)c1` [Example 18, (R)—N-((2-(cyclopropylmethyl)pyrrolidin-2-yl)methyl)-2-(5-(thiophen-2-yl)pyrazolo[1,5-a]pyrimidin-3-yl)isonicotinamide], 6.51 nM. The value for `CCN(CC)[C@@H](C)CNC(=O)c1cc(-c2cnn3ccc(-c4cccs4)nc23)nc(N2CC[C@H]2c2nc(C)no2)c1` [Example 308, N—((S)-2-(diethylamino)propyl)-2-((S)-2-(3-methyl-1,2,4-oxadiazol-5-yl)azetidin-1-yl)-6-(5-(thiophen-2-yl)pyrazolo[1,5-a]pyrimidin-3-yl)isonicotinamide] was 0.71 nM; that for `CCN(CC)[C@@H](C)CNC(=O)c1cc(-c2cnn3ccc(-c4cccs4)nc23)nc(N2CC(F)(F)C(F)(F)C2)c1` [Example 230, (S)—N-(2-(diethylamino)propyl)-2-(3,3,4,4-tetrafluoropyrrolidin-1-yl)-6-(5-(thiophen-2-yl)pyrazolo[1,5-a]pyrimidin-3-yl)isonicotinamide] was 1.8 nM. The value for `C[C@@H](CNC(=O)c1ccnc(-c2cnn3ccc(-c4cccs4)nc23)c1)NCC1CC1` [Example 26, (S)—N-(2-((cyclopropylmethyl)amino)propyl)-2-(5-(thiophen-2-yl)pyrazolo[1,5-a]pyrimidin-3-yl)isonicotinamide] was 10.7 nM; that for `CCN(CC)[C@@H](C)CNC(=O)c1cc(-c2cnn3ccc(-c4cccs4)nc23)nc(N2CC(NS(=O)(=O)C(C)C)C2)c1` [Example 183, (S)—N-(2-(diethylamino)propyl)-2-(3-((1-methylethyl)sulfonamido)azetidin-1-yl)-6-(5-(thiophen-2-yl)pyrazolo[1,5-a]pyrimidin-3-yl)isonicotinamide] was 0.26 nM. As for `NC[C@H]1CCCCN1C(=O)c1cc(-c2cnn3ccc(-c4ccccc4)nc23)ncc1N` [Example 138, (R)-(5-amino-2-(5-phenylpyrazolo[1,5-a]pyrimidin-3-yl)pyridin-4-yl)(2-(aminomethyl)piperidin-1-yl)methanone], the IC50 came to 0.4 nM.

Turning to `CCN(CC)[C@@H](C)CNC(=O)c1cc(-c2cnn3ccc(-c4cccs4)nc23)nc(C(F)(F)F)c1` [Example 107, (S)—N-(2-(diethylamino)propyl)-2-(5-(thiophen-2-yl)pyrazolo[1,5-a]pyrimidin-3-yl)-6-(trifluoromethyl)isonicotinamide], the IC50 came to 5.62 nM. Under `Cc1cc(C(=O)N2CCC[C@@H]2CN)cc(-c2cnn3ccc(-c4ccccc4)nc23)n1` [Example 131, (R)-(2-(aminomethyl)pyrrolidin-1-yl)(2-methyl-6-(5-phenylpyrazolo[1,5-a]pyrimidin-3-yl)pyridin-4-yl)methanone] stands 56.1 nM; under `CN(C)CCNC(=O)c1ccnc(-c2cnn3ccc(-c4ccccc4)nc23)c1` [Example 39, N-(2-(dimethylamino)ethyl)-2-(5-phenylpyrazolo[1,5-a]pyrimidin-3-yl)isonicotinamide], 137 nM; under `CCN(CC)[C@@H](C)CNC(=O)c1cc(-c2c[nH]nc2C)nc(-c2cnn3ccc(-c4cccs4)nc23)c1` [Example 333, (S)—N-(2-(diethylamino)propyl)-2-(3-methyl-1H-pyrazol-4-yl)-6-(5-(thiophen-2-yl)pyrazolo[1,5-a]pyrimidin-3-yl)isonicotinamide], 0.22 nM. For `CCN(CC)[C@@H](C)CNC(=O)c1cc(-c2cnn3ccc(-c4cccs4)nc23)nc(N2CCC3(COC3)C2)c1` [Example 233, (S)—N-(2-(diethylamino)propyl)-2-(2-oxa-6-azaspiro[3.4]octan-6-yl)-6-(5-(thiophen-2-yl)pyrazolo[1,5-a]pyrimidin-3-yl)isonicotinamide], the IC50 came out at 0.18 nM.

Turning to `CCN(CC)CCNC(=O)c1cc(NCCO)nc(-c2cnn3ccc(-c4cccs4)nc23)c1` [Example 259, N-(2-(diethylamino)ethyl)-2-((2-hydroxyethyl)amino)-6-(5-(thiophen-2-yl)pyrazolo[1,5-a]pyrimidin-3-yl)isonicotinamide], the IC50 turned out to be 1.02 nM. Under `CCC(N)CNC(=O)c1ccnc(-c2cnn3ccc(-c4ccccc4)nc23)c1` (stereo not drawn) [Example 46, N-(2-aminobutyl)-2-(5-phenylpyrazolo[1,5-a]pyrimidin-3-yl)isonicotinamide] stands 23.7 nM. Under `CN(C)CCNC(=O)c1ccnc(-c2cnn3ccc(-c4cccs4)nc23)c1` [Example 9, N-(2-(dimethylamino)ethyl)-2-(5-(thiophen-2-yl)pyrazolo[1,5-a]pyrimidin-3-yl)isonicotinamide] stands 26 nM. As for `CCN(CC)[C@@H](C)CNC(=O)c1cc(-c2cnn3ccc(-c4cccs4)nc23)nc(N2CC[C@H](N)C2)c1` [Example 317, 2-((S)-3-aminopyrrolidin-1-yl)-N—((S)-2-(diethylamino)propyl)-6-(5-(thiophen-2-yl)pyrazolo[1,5-a]pyrimidin-3-yl)isonicotinamide], the IC50 came out at 0.07 nM. For `CCN(CC)[C@@H](C)CNC(=O)c1cc(-c2cnn(C3COC3)c2)nc(-c2cnn3ccc(-c4cccs4)nc23)c1` [Example 342, (S)—N-(2-(diethylamino)propyl)-2-(1-(oxetan-3-yl)-1H-pyrazol-4-yl)-6-(5-(thiophen-2-yl)pyrazolo[1,5-a]pyrimidin-3-yl)isonicotinamide], the IC50 was found to be 0.13 nM. On to `CCN[C@@H](C)CNC(=O)c1cc(-c2cnn3ccc(-c4cccs4)nc23)nc(N2CC(O)C2)c1` [Example 169, (S)—N-(2-(ethylamino)propyl)-2-(3-hydroxyazetidin-1-yl)-6-(5-(thiophen-2-yl)pyrazolo[1,5-a]pyrimidin-3-yl)isonicotinamide], for which the IC50 came out at 9.11 nM. The value for `O=C(c1ccnc(-c2cnn3ccc(-c4ccccc4)nc23)c1)N1CCCC12CCCNC2` (stereo not drawn) [Example 97, (2-(5-phenylpyrazolo[1,5-a]pyrimidin-3-yl)pyridin-4-yl)(1,7-diazaspiro[4.5]decan-1-yl)methanone] was 216 nM; that for `CCN[C@H](CC)CNC(=O)c1ccnc(-c2cnn3ccc(-c4cccs4)nc23)c1` [Example 29, (R)—N-(2-(ethylamino)butyl)-2-(5-(thiophen-2-yl)pyrazolo[1,5-a]pyrimidin-3-yl)isonicotinamide] was 7.72 nM; that for `CCN(CC)[C@@H](C)CNC(=O)c1cc(NCC2COC2)nc(-c2cnn3ccc(-c4cccs4)nc23)c1` [Example 192, (S)—N-(2-(diethylamino)propyl)-2-((oxetan-3-ylmethyl)amino)-6-(5-(thiophen-2-yl)pyrazolo[1,5-a]pyrimidin-3-yl)isonicotinamide] was 141 nM. Under `CCN(CC)[C@@H](C)CNC(=O)c1cncc(-c2cnn3ccc(-c4cccs4)nc23)c1` [Example 362, (S)—N-(2-(diethylamino)propyl)-5-(5-(thiophen-2-yl)pyrazolo[1,5-a]pyrimidin-3-yl)nicotinamide] stands 0.52 nM. The value for `CCN(CC)[C@@H](C)CNC(=O)c1cc(-c2cnn3ccc(-c4cccs4)nc23)nc(N2CC[C@H]2C(=O)O)c1` [Example 296, (S)-1-(4-(((S)-2-(diethylamino)propyl)carbamoyl)-6-(5-(thiophen-2-yl)pyrazolo[1,5-a]pyrimidin-3-yl)pyridin-2-yl)azetidine-2-carboxylic Acid] was 1.93 nM.

These data come from US10100058B2, “Fused heterocyclic compounds as CaM kinase inhibitors” (Gilead Sciences, Inc., priority 2016, dated 2018).
